Results reported in patent publication US20120283193A1, “MANIPULATION OF BRAIN IN A CIRCUIT-SPECIFIC MANNER” (priority 2009, published 2012).
Like-named read-outs stand apart in the source and are kept apart here.

Columns and labels:
[1] = system: VSC neurons; assay type: in vivo, Xenopus
Procedure: (§1) Neuropharmacology. […] For selective ablation of VSCDA neurons, MPTP was bath-applied in the dark to larvae for 8 h at stage 41. 100 mM deprenyl (Sigma) was bath-applied to inhibit monoamine oxidase.
Immunocytochemistry. The number of neurons in the VSC was quantified by counting the cells within the core and the surrounding annular region in sections of the diencephalon.
A pharmacological approach to test the involvement of electrical activity and calcium signaling was then performed. […] agarose beads loaded with calcein acetoxymethylester (calcein-AM) tracer were implanted in the roof of the hypothalamus above the VSC to evaluate the time course of drug delivery.

[2] = system: OB interneurons; test: Neurotransmitter expression in olfactory bulb interneurons after kin/non-kin odorant exposure; assay type: in vivo, Xenopus laevis
[3] = system: Xenopus larvae; test: Skin pigmentation adaptation to illumination/background in larvae; assay type: in vivo; conditions: for light-dependent changes in pigmentation (reduction in pigmented area) driven by newly induced TH/NPY annular neurons: MPTP-light and control larvae, sulpiride 10 nM during 30-min exposure to white background (FIG. 6c)
Procedure: Illumination experiments. The optimal condition for altering skin pigmentation and numbers of TH neurons were determined by raising larvae under two illumination conditions. In the first, larvae were placed on black, grey or white backgrounds (corresponding to N2.25, N7.25 or N9.5 on the Munsell neutral value scale of a monochromatic colour wheel) with constant illumination (331 lux (lx)). In the second, larvae on a white, grey or black background were exposed to constant illumination (6,560 lx, measured with a light meter (Sper Scientific)-equivalent to shady illumination on a sunny day), or to constant dark or to 12 h light/12 h dark. […] For some tests of the functional significance of newly TH neurons, animals were raised under different light/background conditions and a conditioning step of 30 min light/white background exposure was imposed to achieve similar levels of skin pigmentation before comparing light or dark adaptation between these groups.
as §1

For `CC(=O)OCOC(=O)CN(CC(=O)OCOC(C)=O)c1ccccc1OCCOc1ccccc1N(CC(=O)OCOC(C)=O)CC(=O)OCOC(C)=O` [BAPTA-AM, 1,2-bis-(o-aminophenoxy)-ethane-N,N,N9,N9-tetraacetic acid, tetraacetoxymethyl ester], the “number of TH neurons or NPY/TH annular neurons in the VSC” value ([1]; drug-loaded agarose beads implanted above the VSC, 2 h white light following 24 h in the dark (FIG. 4b, c)) was “no increase”, the “NPY/TH colocalization in VSC sections of bead-implanted larvae” value ([1]; larvae exposed to 2 h light, versus white-adapted control and calcein bead (FIG. 4B)) was “absent” and the “changes in NT phenotype (dopamine/GABA coexpression) after kin or nonkin exposure” value ([2]; local delivery, stage 45 larvae, 48 hr odorant exposure) was “prevents”.
With `CN1CC=C(c2ccccc2)CC1` [MPTP, 1-methyl-4-phenyl-1,2,3,6-tetrahydropyridine] the “changes in pigmentation after 30 min exposure to light / white background” value ([3]; dark-raised, MPTP-treated larvae (MPTP-dark group, FIG. 6c)) was “abolished”.
For `Oc1cc2c(cc1O)C(c1ccccc1)CNCC2` (centres unmarked) [SKF-38393], the “effect on pigmentation behaviour” value ([3]; D1 receptor agonist and antagonist, opposite effect to the D2 ligands) was “darkening”.
For `NC1=N[C@H](O)[C@H]2[C@H]3O[C@]4(O)O[C@@H]([C@@H](O)[C@@]2(N1)[C@@H]4O)[C@]3(O)CO` [TTX, tetrodotoxin], the “number of TH neurons or NPY/TH annular neurons in the VSC” value ([1]; in vivo) was “no increase” and the “changes in NT phenotype (dopamine/GABA coexpression) after kin or nonkin exposure” value ([2]; in vivo) was “prevents”.
For `CCN1CCCC1CNC(=O)c1cc(S(N)(=O)=O)ccc1OC` (centres unmarked) [sulpiride], the “number of TH VSC neurons” value ([1]; sulpiride-treated larvae) was “not affected”, the “light-dependent changes in pigmentation (reduction in pigmented area) driven by newly induced TH/NPY annular neurons” value [3] was “blocked” and the “light-dependent changes in pigmentation (reduction in pigmented area) driven by newly induced TH/NPY annular neurons” value ([3]; listed as Sulpiride) was “blocks”. The “changes in skin pigmentation in response to altered illumination” value ([3]; stage-42 larvae raised in the dark, 10 nM sulpiride for 30 min (FIG. 1c)) was “blocked”.
